Results: article PMC12635268, “Novel antimicrobial peptides and peptide-microbiome crosstalk in Appalachian salamander skin” (NPJ Biofilms and Microbiomes, 2025)
Like-named read-outs stand apart in the source and are kept apart here.

Tests used:
Assay in all cases: microbe, parasite or virus in culture
P. aeruginosa ATCC 27853 = conditions: Pseudomonas aeruginosa
Outline: (§1)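 Each strain was exposed in duplicate to two-fold peptide dilutions (0.25 to 128 μg/mL) in cation-adjusted Mueller-Hinton broth at 1 × 10⁵ CFU/mL. After 20 h at 37 °C without shaking, the lowest concentration lacking visible growth was recorded following CLSI.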

P. aeruginosa MRSN 5519 = conditions: Pseudomonas aeruginosa
Outline: as §1

[1] = system: K. pneumoniae ATCC 700603; conditions: Klebsiella pneumoniae
Outline: as §1

S. aureus ATCC 25923 = conditions: for Bacterial MIC: S. aureus 25923; for MIC: Staphylococcus aureus
Outline: as §1

A. baumannii ATCC 19606 = conditions: Acinetobacter baumannii
Outline: as §1

K. pneumoniae ATCC 13883 = conditions: Klebsiella pneumoniae
Outline: as §1

E. faecium ATCC 19434 = conditions: Enterococcus faecium
Outline: as §1

E. coli ATCC 35218 = conditions: for Bacterial MIC: E. coli 35218; for MIC: Escherichia coli
Outline: as §1

S. aureus ATCC 43300 = conditions: for Bacterial MIC: S. aureus 43300; for MIC: Staphylococcus aureus
Outline: as §1

E. faecium ATCC 49224 = conditions: Enterococcus faecium
Outline: as §1

P. aeruginosa PA01 (Si) = assay type: cell-based; conditions: P. aeruginosa PA01 (Si), not typical ESKAPEE strain
Description: Supplement 41522_2025_837_MOESM13_ESM.xlsx, sheet "Table_S13_ESKAPEE-MIC" | column: Bacterial MIC (µg/mL)

P. aeruginosa PA01 = assay type: cell-based; conditions: Pseudomonas aeruginosa
Outline: as §1

C[C@H]1COc2c(N3CCN(C)CC3)c(F)cc3c(=O)c(C(=O)O)cn1c23 [Levofloxacin, reference compound]
4 µg/mL: MIC (E. faecium ATCC 19434; ATCC19434, 20 h, E. faecium 19434, CAMHB, 1 × 10⁵ CFU/mL, 0.25 to 128 μg/mL, 37 °C 20 h, duplicate, read visually (CLSI)) | MIC (E. faecium ATCC 19434; ATCC19434, read-out: Bacterial MIC, E. faecium 19434, Historical run 15NOV23) | MIC (E. faecium ATCC 19434; ATCC19434, read-out: Bacterial MIC, E. faecium 19434, Historical run 19APRIL23) | MIC (E. faecium ATCC 19434; ATCC19434, read-out: Bacterial MIC, E. faecium 19434, Week 1 (12/6/2023))
64 µg/mL: MIC (P. aeruginosa MRSN 5519; MRSN5519, read-out: Bacterial MIC, P. aeruginosa 5519, Historical run 15NOV23) | MIC (P. aeruginosa MRSN 5519; MRSN5519, read-out: Bacterial MIC, P. aeruginosa 5519, Historical run 19APRIL23)
<= 0.250 µg/mL: Bacterial MIC (S. aureus ATCC 25923; Historical run 15NOV23) | Bacterial MIC (S. aureus ATCC 25923; Historical run 19APRIL23) | Bacterial MIC (S. aureus ATCC 25923; Historical run 22NOV23) | Bacterial MIC (S. aureus ATCC 25923; Week 2 (12/14/2023)) | Bacterial MIC (E. coli ATCC 35218; Historical run 15NOV23) | Bacterial MIC (E. coli ATCC 35218; Historical run 19APRIL23) | Bacterial MIC (E. coli ATCC 35218; Historical run 22NOV23) | Bacterial MIC (E. coli ATCC 35218; Week 2 (12/14/2023)) | Bacterial MIC (S. aureus ATCC 43300; Historical run 15NOV23) | Bacterial MIC (S. aureus ATCC 43300; Historical run 19APRIL23) | Bacterial MIC (S. aureus ATCC 43300; Historical run 22NOV23) | Bacterial MIC (S. aureus ATCC 43300; Week 2 (12/14/2023))
0.5 µg/mL: MIC (P. aeruginosa ATCC 27853; ATCC27853, 20 h, P. aeruginosa 27853, CAMHB, 1 × 10⁵ CFU/mL, 0.25 to 128 μg/mL, 37 °C 20 h, duplicate, read visually (CLSI)) | MIC (P. aeruginosa ATCC 27853; ATCC27853, read-out: Bacterial MIC, P. aeruginosa 27853, Historical run 22NOV23) | MIC (P. aeruginosa ATCC 27853; ATCC27853, read-out: Bacterial MIC, P. aeruginosa 27853, Week 1 (12/6/2023)) | MIC (P. aeruginosa ATCC 27853; ATCC27853, read-out: Bacterial MIC, P. aeruginosa 27853, Week 2 (12/14/2023)) | MIC ([1]; ATCC700603, 20 h, K. pneumoniae 700603, CAMHB, 1 × 10⁵ CFU/mL, 0.25 to 128 μg/mL, 37 °C 20 h, duplicate, read visually (CLSI)) | MIC ([1]; ATCC700603, read-out: Bacterial MIC, K. pneumoniae 700603, Historical run 15NOV23) | MIC ([1]; ATCC700603, read-out: Bacterial MIC, K. pneumoniae 700603, Week 1 (12/6/2023)) | MIC ([1]; ATCC700603, read-out: Bacterial MIC, K. pneumoniae 700603, Week 2 (12/14/2023)) | MIC (A. baumannii ATCC 19606; ATCC19606, read-out: Bacterial MIC, A. baumannii 19606, Historical run 15NOV23) | MIC (A. baumannii ATCC 19606; ATCC19606, read-out: Bacterial MIC, A. baumannii 19606, Historical run 19APRIL23) | MIC (P. aeruginosa PA01; PAO1, P. aeruginosa 15692 (PAO1), Historical run 15NOV23, read-out: Bacterial MIC) | MIC (P. aeruginosa PA01; PAO1, P. aeruginosa 15692 (PAO1), Historical run 19APRIL23, read-out: Bacterial MIC)
0.5 to 1 µg/mL: MIC ([1]; ATCC700603, read-out: Bacterial MIC, K. pneumoniae 700603, Historical run 19APRIL23)
2 µg/mL: MIC (E. faecium ATCC 19434; ATCC19434, read-out: Bacterial MIC, E. faecium 19434, Historical run 22NOV23) | MIC (E. faecium ATCC 49224; ATCC49224, 20 h, E. faecium 49224, CAMHB, 1 × 10⁵ CFU/mL, 0.25 to 128 μg/mL, 37 °C 20 h, duplicate, read visually (CLSI)) | MIC (E. faecium ATCC 49224; ATCC49224, read-out: Bacterial MIC, E. faecium 49224, Historical run 19APRIL23) | MIC (E. faecium ATCC 49224; ATCC49224, read-out: Bacterial MIC, E. faecium 49224, Week 1 (12/6/2023)) | MIC (E. faecium ATCC 49224; ATCC49224, read-out: Bacterial MIC, E. faecium 49224, Week 2 (12/14/2023))
8 µg/mL: Bacterial MIC (P. aeruginosa PA01 (Si); Week 2 (12/14/2023)) | MIC (P. aeruginosa PA01 (Si); Pseudomonas aeruginosa, Week 1 (12/6/2023), read-out: Bacterial MIC) | MIC (P. aeruginosa PA01; PA01, 20 h, P. aeruginosa PA01, CAMHB, 1 × 10⁵ CFU/mL, 0.25 to 128 μg/mL, 37 °C 20 h, duplicate, read visually (CLSI), read-out: MIC)
0.25 to 0.5 µg/mL: MIC (K. pneumoniae ATCC 13883; ATCC13883, read-out: Bacterial MIC, K. pneumoniae 13883, Historical run 19APRIL23)
0.25 µg/mL: MIC (S. aureus ATCC 25923; ATCC25923, 20 h) | MIC (A. baumannii ATCC 19606; ATCC19606, 20 h, A. baumannii 19606, CAMHB, 1 × 10⁵ CFU/mL, 0.25 to 128 μg/mL, 37 °C 20 h, duplicate, read visually (CLSI)) | MIC (K. pneumoniae ATCC 13883; ATCC13883, 20 h, K. pneumoniae 13883, CAMHB, 1 × 10⁵ CFU/mL, 0.25 to 128 μg/mL, 37 °C 20 h, duplicate, read visually (CLSI)) | MIC (E. coli ATCC 35218; ATCC35218, 20 h) | MIC (S. aureus ATCC 43300; ATCC43300, 20 h)
32 µg/mL: MIC (P. aeruginosa MRSN 5519; MRSN5519, 20 h, P. aeruginosa 5519, CAMHB, 1 × 10⁵ CFU/mL, 0.25 to 128 μg/mL, 37 °C 20 h, duplicate, read visually (CLSI)) | MIC (P. aeruginosa MRSN 5519; MRSN5519, read-out: Bacterial MIC, P. aeruginosa 5519, Historical run 22NOV23) | MIC (P. aeruginosa MRSN 5519; MRSN5519, read-out: Bacterial MIC, P. aeruginosa 5519, Week 1 (12/6/2023)) | MIC (P. aeruginosa MRSN 5519; MRSN5519, read-out: Bacterial MIC, P. aeruginosa 5519, Week 2 (12/14/2023))
1 µg/mL: MIC (P. aeruginosa ATCC 27853; ATCC27853, read-out: Bacterial MIC, P. aeruginosa 27853, Historical run 15NOV23) | MIC (P. aeruginosa ATCC 27853; ATCC27853, read-out: Bacterial MIC, P. aeruginosa 27853, Historical run 19APRIL23) | MIC (E. faecium ATCC 49224; ATCC49224, read-out: Bacterial MIC, E. faecium 49224, Historical run 15NOV23) | MIC (E. faecium ATCC 49224; ATCC49224, read-out: Bacterial MIC, E. faecium 49224, Historical run 22NOV23)
4 to 8 µg/mL: MIC (E. faecium ATCC 19434; ATCC19434, read-out: Bacterial MIC, E. faecium 19434, Week 2 (12/14/2023))
≤ 0.25 µg/mL: MIC ([1]; ATCC700603, read-out: Bacterial MIC, K. pneumoniae 700603, Historical run 22NOV23) | MIC (S. aureus ATCC 25923; ATCC25923, read-out: Bacterial MIC) | MIC (A. baumannii ATCC 19606; ATCC19606, read-out: Bacterial MIC, A. baumannii 19606, Historical run 22NOV23) | MIC (A. baumannii ATCC 19606; ATCC19606, read-out: Bacterial MIC, A. baumannii 19606, Week 1 (12/6/2023)) | MIC (A. baumannii ATCC 19606; ATCC19606, read-out: Bacterial MIC, A. baumannii 19606, Week 2 (12/14/2023)) | MIC (K. pneumoniae ATCC 13883; ATCC13883, read-out: Bacterial MIC, K. pneumoniae 13883, Historical run 15NOV23) | MIC (K. pneumoniae ATCC 13883; ATCC13883, read-out: Bacterial MIC, K. pneumoniae 13883, Historical run 22NOV23) | MIC (K. pneumoniae ATCC 13883; ATCC13883, read-out: Bacterial MIC, K. pneumoniae 13883, Week 1 (12/6/2023)) | MIC (K. pneumoniae ATCC 13883; ATCC13883, read-out: Bacterial MIC, K. pneumoniae 13883, Week 2 (12/14/2023)) | MIC (E. coli ATCC 35218; ATCC35218, read-out: Bacterial MIC) | MIC (S. aureus ATCC 43300; ATCC43300, read-out: Bacterial MIC) | MIC (P. aeruginosa PA01; PAO1, P. aeruginosa 15692 (PAO1), Historical run 22NOV23, read-out: Bacterial MIC) | MIC (P. aeruginosa PA01; PAO1, P. aeruginosa 15692 (PAO1), Week 2 (12/14/2023), read-out: Bacterial MIC)
